Data reported in patent publication US4280993A, “Process for determining the concentration of benzodiazepines in a body fluid” (priority 1978, dated 1981).

What was measured:
[1] = test system: dopamine receptor sites in mamalian brain; conditions: cited from earlier work
[2] = test system: receptor powder (ox brain tissue), ^3 H-flunitrazepam binding; assay: Displacement of 3H-flunitrazepam from freeze-dried ox brain receptor powder (lorazepam standard curve); conditions: for Counts per minute: 50 μl added, bound 3H-flunitrazepam
Method: (a) A 25 mM solution of a sodium phosphate buffer, pH 7.0 (Solution I).
(b) A solution containing 18 ng and 5 μCi of ^3 H-flunitrazepam in 10 ml of 10% ethanol in Solution I (Solution II).
(c) About 0.3 g of a receptor powder, prepared as described below, suspended in 30 ml of Solution I (Suspension III).
(d) A standard solution (IV) containing 20 ng/ml of lorazepam, and prepared by dilution with the buffer I of 0.5 ml of 93% ethanolic solution (IVa) of lorazepam, containing 1 μg/ml of lorazepam, to a volume of 25 ml.
To 15 ml test tubes, each containing 400 μl of the receptor suspension III, are added 100 μl of Solution II and 50 μl of the sample, or 50 μl of the standard solution IV. The tubes are incubated at room temperature for at least 20 minutes and maximum 2 hours. Then, 10 ml of isothermic I are added, and the mixture is immediately filtered through a Whatman GF/C glassfibre filter and washed with 10 ml of isothermic buffer solution I.
The washed filter is placed in a scintillation vial, containing 5 ml of conventional scintillation fluid, and counted shortly after for 0.5 minute, or better the next day for 5 minutes.
For the preparation of a standard curve, a series of dilutions of the lorazepam standard solution (IV) is prepared by diluting with the buffer I, and assaying is performed in duplicate with 50 μl of each of these dilutions being added to the test tubes, each of which contains 400 μl of the suspension III and 100 μl of the solution II.
The average of counts co from the controls is 3187 from which is subtracted the average of the counts from the blanks, which is 160, to give co -cblank.
The count cx from each sample also has to be reduced by the average counts from the blanks, resulting from background radiation, to give cx -cblank.
In the accompanying drawing, the test results are plotted as co -cblank/cx -cblank versus the concentration of lorazepam, and the standard curve, therefore, can be used for quantitative determination of the benzodiazepine contents of samples.
The receptor powder used in the process described above was ox brain tissue which had been homogenized in 3 volumes of iced 1M sucrose solution whereafter the homogenate had been freeze-dried.

Structure (SMILES) | binding to dopamine receptor sites [1] | c o - cblank / c x - cblank ([2]; drug 6.25 ng/ml) | Counts per minute ([2]; drug 6.25 ng/ml) [counts per minute] | c o - cblank / c x - cblank ([2]; drug 12.5 ng/ml) | Counts per minute ([2]; drug 12.5 ng/ml) [counts per minute] | c o - cblank / c x - cblank ([2]; drug 25 ng/ml) | Counts per minute ([2]; drug 25 ng/ml) [counts per minute] | c o - cblank / c x - cblank ([2]; drug 62.5 ng/ml) | Counts per minute ([2]; drug 62.5 ng/ml) [counts per minute] | c o - cblank / c x - cblank ([2]; drug 125 ng/ml) | Counts per minute ([2]; drug 125 ng/ml) [counts per minute] | c o - cblank / c x - cblank ([2]; drug 250 ng/ml)
O=C(CCCN1CCC2(CC1)C(=O)NCN2c1ccccc1)c1ccc(F)cc1 [^3 H-spiroperidol] | bind selectively and with high affinity | – | – | – | – | – | – | – | – | – | – | –
O=C1Nc2ccc(Cl)cc2C(c2ccccc2Cl)=NC1O (stereo not drawn) [lorazepam, 7-chloro-5-(2-chlorophenyl)-3-hydroxy-2,3-dihydro-1H-1,4-benzodiazepin-2-one] | – | 1.41 | 2313 | 1.73 | 1910 | 2.30 | 1477 | 3.86 | 944 | 6.87 | 601 | 12.51
